Here are results for 4 molecules from PMC2576352, “The V1-V3 region of a brain-derived HIV-1 envelope glycoprotein determines macrophage tropism, low CD4 dependence, increased fusogenicity and altered sensitivity to entry inhibitors” (Retrovirology, 2008).

Test [1] has as its system brain-derived Env versus spleen-derived Env. Conditions: cited from earlier work. From the text:
We and others have investigated whether viruses or Env with these particular phenotypes are present among primary isolates in the brain/CNS of HIV-1-infected individuals. In this sense, Peters et al. have reported that the macrophage tropism of brain-derived Env seems to correlate with reduced sensitivity to inhibition by an anti-CD4 mAb but not by CCR5 antagonists or gp41-targeting antibodies or fusion inhibitor peptides. […] We hypothesized that the brain gp120 would contain the determinants for low CD4 dependence and higher avidity for CD4, while gp41 could likely play a role in the increased fusogenicity and reduced sensitivity to fusion inhibitors. In the present study, we have used chimeric and ...

Test [2] concerns pseudotypes containing wild-type, chimeric and mutant Env. Description: Inhibition of pseudotype infection by entry/fusion inhibitors, Env panel. It counts as cell-based, HIV-1. Conditions: all pseudotypes; data not shown. As to the method:
To produce Env-pseudotyped, luciferase-reporter viruses, 293T cells were co-transfected using calcium phosphate precipitation (ProFection Mammalian Transfection System, Promega, Madison, WI) with each Env expression vector and with the Env-deficient, pNL4-3-luc^+env^- provirus, developed by N. Landau by introducing a frameshift mutation in the env gene of pNL4-3-luc^+ [87]. Culture supernatants containing the pseudotyped particles were collected 48–72 hours after transfection, clarified by centrifugation, aliquoted and stored at -80°C until use. Pseudotype particles lacking envelope glycoproteins, which are generated by co-transfecting the luciferase HIV-1 pro-viral backbone with an empty expression vector, are used as negative control for all pseudotype infections. Pseudotype stocks were quantitated using a p24^gag antigen capture ELISA (SAIC-National Cancer Institute) and normalized amounts of stocks were used to infect target cells for 5–6 hours at 37°C. At 2–3 days post-infection, the cells were washed with PBS and lysed, and the amount of entry mediated by each Env was measured by detecting luciferase activity (Luciferase Assay System, Promega) in a microplate luminometer (GloMax, Promega), following manufacturer's instructions. Results are obtained as relative light units (RLU) per second. […]
Inhibition curves obtained by plotting the relative infection (expressed as a percent of untreated) versus the concentration of the inhibitor were analyzed by non-linear regression with a sigmoidal dose-response model (variable slopes) using GraphPad Prism software, version 4.02 (GraphPad Software, San Diego, CA); this analysis uses a four parameter logistic equation, Y = Bottom + (Top-Bottom)/( 1+10^((log10IC50−X)⋅Slope) ) where Y is the response, Bottom is 0 and Top is 100, X is the logarithm of the concentration, and Slope is the slope of the curve. […] Fusogenicity data were analyzed by non-linear regression with a one-phase exponential model (using GraphPad Prism) that uses the equation Y=Ymax(1-e^(-kX)), where Ymax is the maximum response and k is the observed rate. […]

In test [3] the target is T1, N40, biotinylated HR1-derived peptide (HIV-1, biotin on the amino terminus).
T1 construct: peptide derived from the heptad repeat 1 (HR1) region of HIV-1 gp41; Held on a streptavidin SA chip by its biotin; also called HR1-based peptide; source: synthetic peptide, custom synthesized
T1 peptide: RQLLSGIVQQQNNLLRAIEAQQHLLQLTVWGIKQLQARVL
Description: SPR; Biacore 3000; biotinylated N40 held on a streptavidin SA chip, N40scr surface as reference; T-1249 and T-1249-BR at 81–650 nM passed over at 25 µl/min, 25°C; 25 mM Tris-HCl, 150 mM NaCl, pH 7.4, 8% DMSO. Conditions: both partners purified.

Numbering of substitutions follows the chain as printed.

In the case of `Cc1ccc(-c2ccc3c(c2)C=C(C(=O)Nc2ccc(C[N+](C)(C)C4CCOCC4)cc2)CCC3)cc1.[Cl-]` [TAK-779], the “sensitivity of brain-derived Env to CCR5 inhibitor” value in test [1] is recorded as “absence of differences in sensitivity”.

On to “YTNLIYNLIEKSQNQQEMNEQELLKLDTWASLWNWF [T-20-BR, T-20-derived peptide with amino acid changes present in HR2 region of brain-derived env clones]”, for which the “inhibition of pseudotype infection” value in test [2] is given as “very similar inhibition”.

B1: T-1249 (peptide)
peptide: WQEWEQKITALLEQAQIQQEKNEYELQKLDKWASLWEWF
notes: also called parental T-1249; HR2-derived peptide; source: synthetic peptide, custom synthesized (BioSynthesis, Inc.)
For B1, the binding result in test [3] is “binds”.

B2: T-1249-BR (peptide)
peptide: B1 peptide with K21M, Y24Q, K31T
notes: T-1249 with three amino acid changes (printed in bold) that are present in the HR2 region of the H0002GH brain-derived env clones; also called modified T-1249-BR; HR2-derived peptide; source: synthetic peptide, custom synthesized (BioSynthesis, Inc.)
For the molecule B2, in test [3], the binding result is “binds”.
